For orientation: melting point means the temperature of the solid-liquid transition. A word on the inhibition: it is the drop in the measured response relative to a control, in per cent. A higher inhibition goes with a strong effect.

From patent publication US20020099035A1, “Method for preparing alpha-sulfonyl hydroxamic acid derivatives” (priority 2001, published 2002) come the findings set out here.

In data set [1] the target is T1, TACE (Homo sapiens, UniProt P78536).
T1 construct: purchased Immunex
T1 sequence (P78536 215-824): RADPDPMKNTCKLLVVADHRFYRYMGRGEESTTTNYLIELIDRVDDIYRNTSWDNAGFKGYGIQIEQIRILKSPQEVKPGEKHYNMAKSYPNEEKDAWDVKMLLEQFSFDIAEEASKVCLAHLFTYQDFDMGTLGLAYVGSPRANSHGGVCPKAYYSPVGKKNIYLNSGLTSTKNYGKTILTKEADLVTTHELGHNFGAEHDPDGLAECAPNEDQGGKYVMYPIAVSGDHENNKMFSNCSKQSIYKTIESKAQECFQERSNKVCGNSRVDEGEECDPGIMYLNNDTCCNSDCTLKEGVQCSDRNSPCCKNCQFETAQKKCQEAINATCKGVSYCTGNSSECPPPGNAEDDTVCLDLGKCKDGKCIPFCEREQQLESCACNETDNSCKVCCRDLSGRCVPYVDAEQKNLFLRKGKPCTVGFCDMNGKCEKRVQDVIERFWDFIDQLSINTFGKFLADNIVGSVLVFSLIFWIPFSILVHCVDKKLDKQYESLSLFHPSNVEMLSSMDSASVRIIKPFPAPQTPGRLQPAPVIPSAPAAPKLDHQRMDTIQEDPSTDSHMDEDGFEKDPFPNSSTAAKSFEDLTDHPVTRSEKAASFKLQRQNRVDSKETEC
Briefly: Procedure for measuring TACE inhibition (fluorescent peptidyl substrate). It counts as biochemical. How it is done: […] The reaction is initiated by addition of a fluorescent peptidyl substrate (final concentration 100 μM) to each well and then shaking on a shaker for 5 sec.
The reaction is read (excitation 340 nm, emission 420 nm) for 10 min. and the increase in fluorescence over time is plotted as a linear line. The slope of the line is calculated and represents the reaction rate.
The linearity of the reaction rate is confirmed (r^2>0.85). The mean (x±sem) of the control rate is calculated and compared for statistical significance (p<0.05) with drug-treated rates using Dunnett's multiple comparison test. Dose-response relationships can be generate using multiple doses of drug and IC50 values with 95% CI are estimated using linear regression.

For data set [2], the target named is T2, MMP1 (human recombinant fibroblast collagenase) (Homo sapiens, UniProt P03956).
T2 construct: human recombinant fibroblast collagenase (truncated, mw=18,828, WAR, Radnor)
T2 sequence (P03956 100-269 limits assumed): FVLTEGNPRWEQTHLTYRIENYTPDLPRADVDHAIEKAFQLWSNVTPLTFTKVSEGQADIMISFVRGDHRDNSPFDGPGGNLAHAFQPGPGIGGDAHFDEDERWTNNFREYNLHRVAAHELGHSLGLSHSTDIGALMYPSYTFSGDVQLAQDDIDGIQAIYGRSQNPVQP
Briefly: In vitro collagenase assay (fluorogenic peptide substrate). To be noted: read-out: MMP1 (1C50). It counts as biochemical. How it is done: The assay is based on the cleavage of a peptide substrate ((Dnp-Pro-Cha-Gly-Cyns(Me)-His-Ala-Lys(NMa)-NH2), Peptide International, Inc.) by collagenase releasing the fluorescent NMa group which is quantitated on the fluorometer. Dnp quenches the NMa fluorescence in the intact substrate. The assay is run in HCBC assay buffer (50 mM HEPES, pH 7.0, 5 mM Ca^+2, 0.02% Brij, 0.5% Cysteine), with human recombinant fibroblast collagenase (truncated, mw=18,828, WAR, Radnor). Substrate is dissolved in methanol and stored frozen in 1 mM aliquots. Collagenase is stored frozen in buffer in 25 μM aliquots. For the assay, substrate is dissolved in HCBC buffer to a final concentration of 10 μM and collagenase to a final concentration of 5 nM. Compounds are dissolved in methanol, DMSO, or HCBC. The methanol and DMSO are diluted in HCBC to <1.0%. Compounds are added to the 96 well plate containing enzyme and the reaction is started by the addition of substrate.
The reaction is read (excitation 340 nm, emission 444 nm) for 10 min. and the increase in fluorescence over time is plotted as a linear line. The slope of the line is calculated and represents the reaction rate.
(§1) The linearity of the reaction rate is confirmed (r^2>0.85). The mean (x±sem) of the control rate is calculated and compared for statistical significance (p<0.05) with drug-treated rates using Dunnett's multiple comparison test. […]

Data set [3] deals with T3, MMP9 (human neutrophil gelatinase B) (Homo sapiens, UniProt P14780).
T3 construct: from tissue; host or cells: human neutrophils
T3 sequence (P14780 94-707): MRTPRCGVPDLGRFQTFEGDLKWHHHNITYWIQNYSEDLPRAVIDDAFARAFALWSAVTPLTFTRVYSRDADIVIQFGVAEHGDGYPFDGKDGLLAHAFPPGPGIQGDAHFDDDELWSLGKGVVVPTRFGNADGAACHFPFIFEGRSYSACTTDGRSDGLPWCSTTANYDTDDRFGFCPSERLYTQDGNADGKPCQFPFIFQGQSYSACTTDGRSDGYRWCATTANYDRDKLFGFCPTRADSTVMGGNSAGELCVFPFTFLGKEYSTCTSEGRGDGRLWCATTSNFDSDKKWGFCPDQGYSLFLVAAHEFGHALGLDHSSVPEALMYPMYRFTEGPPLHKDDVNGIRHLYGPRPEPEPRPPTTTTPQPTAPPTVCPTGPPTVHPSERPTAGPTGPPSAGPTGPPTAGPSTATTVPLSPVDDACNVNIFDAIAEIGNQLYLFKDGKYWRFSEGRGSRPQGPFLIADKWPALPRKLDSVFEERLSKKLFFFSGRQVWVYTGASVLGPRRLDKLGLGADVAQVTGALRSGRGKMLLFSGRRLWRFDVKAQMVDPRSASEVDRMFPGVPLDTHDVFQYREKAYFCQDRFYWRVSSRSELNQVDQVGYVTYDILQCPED
Put plainly: In vitro gelatinase assay (thiopeptide substrate, DTNB). It counts as biochemical. How it is done: The assay is based on the cleavage of the thiopeptide substrate ((Ac-Pro-Leu-Gly(2 mercapto-4 methyl-pentanoyl)-Leu-Gly-OEt), Bachem Bioscience) by the enzyme, gelatinase, releasing the substrate product which reacts calorimetrically with DTNB ((5,5′-dithio-bis(2-nitro-benzoic acid)). The enzyme activity is measured by the rate of the color increase.
The thiopeptide substrate is made up fresh as a 20 mM stock in 100% DMSO and the DTNB is dissolved in 100% DMSO as a 100 mM stock and stored in dark at room temperature. Both the substrate and DTNB are diluted together to 1 mM with substrate buffer (50 mM HEPES pH 7.5, 5 mM CaCl2) before use. The stock of human neutrophil gelatinase B is diluted with assay buffer (50 mM HEPES pH 7.5, 5 mM CaCl2, 0.02% Brij) to a final concentration of 0.15 nM. The assay buffer, enzyme, DTNB/substrate (500 μM final concentration) and vehicle or inhibitor are added to a 96 well plate (total reaction volume of 200 μl ) and the increase in color is monitored spectrophotometrically for 5 minutes at 405 nm on a plate reader.
The increase in OD405 is plotted and the slope of the line is calculated which represents the reaction rate.
as §1

The target in data set [4] is MMP13 (Homo sapiens, UniProt P45452). Briefly: MMP13 inhibition. In kind it is biochemical.

Molecules are shown by their SMILES. Counter-ions that a name gives are not always drawn.

In turn, `COc1ccc(S(=O)(=O)C2(C(=O)NO)CCCN(Cc3ccccc3)C2)cc1` (centres unmarked) (as salt: hydrochloride) [Example 18, 1-Benzyl-3-(4-methoxybenzenesulfonyl)piperidine-3-carboxylic acid hydroxamide] yielded a melting point of 132.9 °C.
Regarding `COc1ccc(S(=O)(=O)C2(C(=O)NO)CCCN(Cc3ccccc3)C2)cc1` (centres unmarked) [Example 18, 1-Benzyl-3-(4-methoxybenzenesulfonyl)piperidine-3-carboxylic acid hydroxamide], testing at 10 µM in data set [1] gave an inhibition of 54%. Besides, the IC50 in data set [2] amounted to 1300 nM; in data set [3], 732 nM; in data set [4], 140 nM.
